# Experimental data published in US20090281054A1, “COMPOSITIONS AND METHODS COMPRISING CAPURAMYCIN ANALOGUES” (priority 2008, published 2009).
# Like-named read-outs stand apart in the source and are kept apart here.
# Tests used:
# [1] = tested on: M. abscessus (MAB; ATCC 700869); assay: MIC by microdilution method in 7H9 broth; type: cell-based; details: MAB 700869
# [2] = tested on: M. kansaii (MKN; ATCC12478 & 35775); assay: MIC by microdilution method in 7H9 broth; type: cell-based, M. kansasii
# [3] = tested on: M. smegmatis (MSMG; MC2155); assay: MIC by microdilution method in 7H9 broth; type: cell-based; details: 72 hr
# M. avium complex (MAC) = assay: MIC by microdilution method in 7H9 broth; type: cell-based; details: for MIC90: value in square brackets
# MAC = assay: Synergy by checkerboard titration (microdilution); type: cell-based, M. avium complex; details: for MIC: Mycobacterium avium, drug alone
# MTB in J774A.1 cells = assay: Intracellular activity of SQ641 with efflux pump blockers; type: cell-based, Mycobacterium tuberculosis; details: J774A.1 cells; VE and CsA at 10 μM
# translocase I = translocase I (Escherichia coli, UniProt P0A6W3); assay: IC50 against translocase I; type: biochemical
# Sequence of translocase I (P0A6W3 whole entry): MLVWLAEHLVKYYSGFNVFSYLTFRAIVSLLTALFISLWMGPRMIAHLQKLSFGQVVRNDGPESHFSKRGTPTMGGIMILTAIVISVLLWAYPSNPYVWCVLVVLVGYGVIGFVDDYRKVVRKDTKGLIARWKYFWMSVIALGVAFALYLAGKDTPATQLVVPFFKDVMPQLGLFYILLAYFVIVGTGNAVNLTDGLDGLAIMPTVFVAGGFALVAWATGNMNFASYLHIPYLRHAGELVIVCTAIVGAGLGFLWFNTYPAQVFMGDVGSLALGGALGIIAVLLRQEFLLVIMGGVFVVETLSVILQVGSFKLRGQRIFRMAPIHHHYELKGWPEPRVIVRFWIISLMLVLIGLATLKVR
# [4] = Mycobacteroides abscessus, ATCC700869, read-out: MIC
# [5] = Mycobacterium kansasii, ATCC 12478 / ATCC 35775, MKN ATCC35775, read-out: MIC
# [6] = Mycobacterium kansasii, MKN ATCC12478, read-out: MIC
# [7] = Mycolicibacterium smegmatis, MC2155|MC^2155, MSMG MC^2155, read-out: MIC
# [8] = Mycobacterium avium, MAC strain 100, read-out: MIC
# [9] = Mycobacterium avium, MAC strain 101, read-out: MIC
# [10] = Mycobacterium avium, MAC strain 104, read-out: MIC
# [11] = Mycobacterium avium, MAC strain 109, read-out: MIC
# [12] = Mycobacterium avium, MAC strain A5, read-out: MIC
# [13] = Mycobacterium avium, MAC strain JSH1, read-out: MIC
# [14] = Mycobacterium avium, MAC strain NIH C1-1, read-out: MIC
# [15] = Mycobacterium avium, MAC strain NIH C1-2, read-out: MIC
# [16] = Mycobacterium avium, MAC strain NIH C1-3, read-out: MIC
# [17] = Mycobacterium avium, MAC strain NIH C1-4, read-out: MIC
# [18] = Mycobacterium avium, MAC isolates, read-out: MIC90
# [19] = Mycobacterium avium, 336 h, MAC isolates, 2 wk, read-out: MIC (range)
SMILES,"MIC [1, 4] [µg/mL]","MIC [2, 5] [µg/mL]","MIC [2, 6] [µg/mL]","MIC [3, 7] [µg/mL]",MIC (M. avium complex (MAC); [8]) [µg/mL],MIC (M. avium complex (MAC); [9]) [µg/mL],MIC (M. avium complex (MAC); [10]) [µg/mL],MIC (M. avium complex (MAC); [11]) [µg/mL],MIC (M. avium complex (MAC); [12]) [µg/mL],MIC (M. avium complex (MAC); [13]) [µg/mL],MIC (M. avium complex (MAC); [14]) [µg/mL],MIC (M. avium complex (MAC); [15]) [µg/mL],MIC (M. avium complex (MAC); [16]) [µg/mL],MIC (M. avium complex (MAC); [17]) [µg/mL],MIC90 (M. avium complex (MAC); [18]) [µg/mL],MIC (M. avium complex (MAC); [19]) [µg/mL],IC50 (translocase I) [nM],also measured
"NCC[C@H](O)C(=O)N[C@@H]1C[C@H](N)[C@@H](O[C@H]2O[C@H](CN)[C@@H](O)[C@H](O)[C@H]2O)[C@H](O)[C@H]1O[C@H]1O[C@H](CO)[C@@H](O)[C@H](N)[C@H]1O [AMK, amikacin, reference compound]",4,2,2,0.5,8,2,16,1,4,8,8,32,8,4,16,–,–,"MIC Combination (MAC; MAC A5, combination SQ641 + AMK): 0.5 µg/mL; MIC Combination (MAC; MAC JSH1, combination SQ641 + AMK): 8.0 µg/mL; MIC Combination (MAC; MAC NIH C1-1, combination SQ641 + AMK): 4.0 µg/mL; MIC (MAC; MAC A5): 2 µg/mL; MIC (MAC; MAC JSH1): 16 µg/mL; MIC (MAC; MAC NIH C1-1): 8 µg/mL"
"O=C(O)c1cn(C2CC2)c2cc(N3CCNCC3)c(F)cc2c1=O [CIP, reference compound]",–,–,–,–,–,–,–,–,–,–,–,–,–,–,–,–,–,"MIC [1]: >32 µg/mL; MIC ([2]; MKN ATCC12478): 2 µg/mL; MIC ([2]; MKN ATCC35775): 0.25 µg/mL; MIC ([3]; MSMG MC^2155): 0.5 µg/mL; MIC range (M. avium complex (MAC); MAC isolates, 2 wk): 0.125 to 32 µg/mL; MIC90 (M. avium complex (MAC); MAC isolates): 2 µg/mL"
"CC[C@H]1OC(=O)[C@H](C)[C@@H](O[C@H]2C[C@@](C)(OC)[C@@H](O)[C@H](C)O2)[C@H](C)[C@@H](O[C@@H]2O[C@H](C)C[C@H](N(C)C)[C@H]2O)[C@](C)(OC)C[C@@H](C)C(=O)[C@H](C)[C@@H](O)[C@]1(C)O [CLA, clarithromycin, reference compound]",> 32,0.25,0.25,2,0.25,0.125,0.5,0.062,0.125,2,1,0.25,32,1,2,0.062 to 32,–,"MIC Combination (MAC; MAC A5, combination SQ641 + CLA): 0.031 µg/mL; MIC Combination (MAC; MAC JSH1, combination SQ641 + CLA): 1 µg/mL; MIC Combination (MAC; MAC NIH C1-1, combination SQ641 + CLA): 2.0 µg/mL; MIC (MAC; MAC A5): 0.125 µg/mL; MIC (MAC; MAC JSH1): 1 µg/mL; MIC (MAC; MAC NIH C1-1): 2 µg/mL"
"Cc1ccc(C)c(OCCCC(C)(C)C(=O)O)c1 [GF, gemfibrozil, reference compound]",–,–,–,–,–,–,–,–,–,–,–,–,–,–,–,–,–,Effect of efflux pump blocker on intracellular activity of SQ641 against MTB (MTB in J774A.1 cells): only moderate effects
"COc1c(N2C[C@@H]3CCCN[C@@H]3C2)c(F)cc2c(=O)c(C(=O)O)cn(C3CC3)c12 [MOX, moxifloxacin, reference compound]",> 32,0.031,0.125,–,–,–,–,–,–,–,–,–,–,–,–,–,–,"MIC ([3]; Mycolicibacterium smegmatis, MC2155|MC^2155, read-out: MIC): 0.125 µg/mL"
"CCCN(CCC)S(=O)(=O)c1ccc(C(=O)O)cc1 [PB, probenecid, reference compound]",–,–,–,–,–,–,–,–,–,–,–,–,–,–,–,–,–,Effect of efflux pump blocker on intracellular activity of SQ641 against MTB (MTB in J774A.1 cells): only moderate effects
CO[C@H]1[C@@H](O)[C@H](n2ccc(=O)[nH]c2=O)O[C@@H]1[C@@H](O[C@H]1OC(C(=O)Nc2ccc(C(F)(F)F)cc2)=C[C@H](O)[C@@H]1O)C(N)=O [RKS2033],2,2,16,4,2,2,1,1,2,2,4,2,8,2,4,1 to 8,–,IC50 against translocase I (translocase I): 0.03 µg/mL
CO[C@H]1[C@@H](O)[C@H](n2ccc(=O)[nH]c2=O)O[C@@H]1[C@@H](O[C@H]1OC(C(=O)Nc2ccc(F)c(C(F)(F)F)c2)=C[C@H](O)[C@@H]1O)C(N)=O [RKS2137],8,2,> 32,4,2,1,1,0.5,1,1,8,2,16,2,8,0.5 to 16,12.9,–
CO[C@H]1[C@@H](O)[C@H](n2ccc(=O)[nH]c2=O)O[C@@H]1[C@@H](O[C@H]1OC(C(=O)Nc2cccc(F)c2)=C[C@H](O)[C@@H]1O)C(N)=O [RKS2186],16,4,> 32,4,2,2,1,1,1,4,8,2,8,2,8,–,–,IC50 against translocase I (translocase I): 0.01 µg/mL
CO[C@H]1[C@@H](O)[C@H](n2ccc(=O)[nH]c2=O)O[C@@H]1[C@@H](O[C@H]1OC(C(=O)Nc2ccc(F)c(F)c2F)=C[C@H](O)[C@@H]1O)C(N)=O [RKS2235],16,2,> 32,4,2,1,1,1,1,2,4,2,8,2,4,1 to 8,17,–
CO[C@H]1[C@@H](O)[C@H](n2ccc(=O)[nH]c2=O)O[C@@H]1[C@@H](O[C@H]1OC(C(=O)Nc2ccc(OC(F)(F)F)cc2)=C[C@H](O)[C@@H]1O)C(N)=O [RKS2241],2,2,32,4,2,1,0.5,0.5,1,2,8,1,16,2,8,0.5 to 16,24.3,–
CO[C@H]1[C@@H](O)[C@H](n2ccc(=O)[nH]c2=O)O[C@@H]1[C@@H](O[C@H]1OC(C(=O)Nc2ccc([N+](=O)[O-])cc2)=C[C@H](O)[C@@H]1O)C(N)=O [RKS2243],> 32,2,32,4,1,1,1,0.5,0.5,1,4,1,8,1,4,0.5 to 8,6.9,–
COC(=O)C1=C[C@H](O)[C@H](O)[C@@H](O[C@@H](C(N)=O)[C@H]2O[C@@H](n3ccc(=O)[nH]c3=O)[C@H](O)[C@@H]2OC)O1 [RS 120029],> 32,> 32,> 32,> 32,32,> 32,32,32,32,> 32,> 32,> 32,> 32,> 32,32,–,–,–
